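Grown in 96-well plates, cells were treated for 48 hours with each compound at five concentrations. Insufficient inhibition: endpoint recorded as highest concentration tested. TGI: total growth inhibition.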
Key:
Assay in all cases: NCI anticancer screen, dose series, 48 h
786-0 renal = system: 786-0 renal
A498 renal = system: A498 renal
A549 NSCLC = system: A549 NSCLC
ACHN renal = system: ACHN renal
BT-549 breast = system: BT-549 breast
CAKI-1 renal = system: CAKI-1 renal
CCRF-CEM leukemia = system: CCRF-CEM leukemia
COLO 205 colon = system: COLO 205 colon
DU-145 prostate = system: DU-145 prostate
EKVX NSCLC = system: EKVX NSCLC
HCC-2998 colon = system: HCC-2998 colon
HCT-116 colon = system: HCT-116 colon
HCT-15 colon = system: HCT-15 colon
HL-60(TB) leukemia = system: HL-60(TB) leukemia
HOP-62 NSCLC = system: HOP-62 NSCLC
HOP-92 NSCLC = system: HOP-92 NSCLC
HS 578T breast = system: HS 578T breast
HT29 colon = system: HT29 colon
IGROV1 ovarian = system: IGROV1 ovarian
K-562 leukemia = system: K-562 leukemia
KM12 colon = system: KM12 colon
LOX IMVI melanoma = system: LOX IMVI melanoma
M14 melanoma = system: M14 melanoma
MALME-3M melanoma = system: MALME-3M melanoma
MCF7 breast = system: MCF7 breast
MDA-MB-231 breast = system: MDA-MB-231 breast
MDA-MB-435 = system: MDA-MB-435
MDA-N = system: MDA-N
MOLT-4 leukemia = system: MOLT-4 leukemia
NCI-H226 lung = system: NCI-H226 lung
NCI-H23 lung = system: NCI-H23 lung
NCI-H460 lung = system: NCI-H460 lung
NCI-H522 lung = system: NCI-H522 lung
NCI/ADR-RES ovarian = system: NCI/ADR-RES ovarian
OVCAR-3 ovarian = system: OVCAR-3 ovarian
OVCAR-4 ovarian = system: OVCAR-4 ovarian
OVCAR-5 ovarian = system: OVCAR-5 ovarian
OVCAR-8 ovarian = system: OVCAR-8 ovarian
PC-3 prostate = system: PC-3 prostate
RPMI-8226 leukemia = system: RPMI-8226 leukemia
RXF 393 renal = system: RXF 393 renal
SF-268 CNS = system: SF-268 CNS
SF-295 CNS = system: SF-295 CNS
SF-539 CNS = system: SF-539 CNS
SK-MEL-2 melanoma = system: SK-MEL-2 melanoma
SK-MEL-28 melanoma = system: SK-MEL-28 melanoma
SK-MEL-5 melanoma = system: SK-MEL-5 melanoma
SK-OV-3 ovarian = system: SK-OV-3 ovarian
SN12C renal = system: SN12C renal
SNB-19 CNS = system: SNB-19 CNS
SNB-75 CNS = system: SNB-75 CNS
SR leukemia = system: SR leukemia
SW-620 colon = system: SW-620 colon
T-47D breast = system: T-47D breast
TK-10 renal = system: TK-10 renal
U251 CNS = system: U251 CNS
UACC-257 melanoma = system: UACC-257 melanoma
UACC-62 melanoma = system: UACC-62 melanoma
UO-31 renal = system: UO-31 renal

CCCCCCCCCCCCCCCCCCNc1ccn(C2OC(CO)C(OP(=O)(O)OCC(COP(=O)(O)OCC3OC(n4cc(F)c(NCCCCCCCCCCCCCCCCCC)nc4=O)CC3O)OC(=O)CCCCCCCCCCCCCCC)C2O)c(=O)n1 (stereo not drawn)
TGI (786-0 renal): > 100 µM
TGI (A498 renal): > 100 µM
TGI (A549 NSCLC): > 100 µM
TGI (ACHN renal): > 100 µM
TGI (BT-549 breast): > 100 µM
TGI (CAKI-1 renal): > 100 µM
TGI (CCRF-CEM leukemia): > 100 µM
TGI (COLO 205 colon): > 100 µM
TGI (DU-145 prostate): > 100 µM
TGI (EKVX NSCLC): > 100 µM
TGI (HCC-2998 colon): > 100 µM
TGI (HCT-116 colon): > 100 µM
TGI (HCT-15 colon): > 100 µM
TGI (HL-60(TB) leukemia): > 100 µM
TGI (HOP-62 NSCLC): > 100 µM
TGI (HOP-92 NSCLC): > 100 µM
TGI (HS 578T breast): > 100 µM
TGI (HT29 colon): > 100 µM
TGI (IGROV1 ovarian): > 100 µM
TGI (K-562 leukemia): > 100 µM
TGI (KM12 colon): > 100 µM
TGI (LOX IMVI melanoma): > 100 µM
TGI (M14 melanoma): > 100 µM
TGI (MALME-3M melanoma): > 100 µM
TGI (MCF7 breast): > 100 µM
TGI (MDA-MB-231 breast): > 100 µM
TGI (MDA-MB-435): > 100 µM
TGI (MDA-N): > 100 µM
TGI (MOLT-4 leukemia): > 100 µM
TGI (NCI-H226 lung): > 100 µM
TGI (NCI-H23 lung): > 100 µM
TGI (NCI-H460 lung): > 100 µM
TGI (NCI-H522 lung): > 100 µM
TGI (NCI/ADR-RES ovarian): > 100 µM
TGI (OVCAR-3 ovarian): > 100 µM
TGI (OVCAR-4 ovarian): > 100 µM
TGI (OVCAR-5 ovarian): > 100 µM
TGI (OVCAR-8 ovarian): > 100 µM
TGI (PC-3 prostate): > 100 µM
TGI (RPMI-8226 leukemia): > 100 µM
TGI (RXF 393 renal): > 100 µM
TGI (SF-268 CNS): > 100 µM
TGI (SF-295 CNS): > 100 µM
TGI (SF-539 CNS): > 100 µM
TGI (SK-MEL-2 melanoma): > 100 µM
TGI (SK-MEL-28 melanoma): > 100 µM
TGI (SK-MEL-5 melanoma): > 100 µM
TGI (SK-OV-3 ovarian): > 100 µM
TGI (SN12C renal): > 100 µM
TGI (SNB-19 CNS): > 100 µM
TGI (SNB-75 CNS): > 100 µM
TGI (SR leukemia): > 100 µM
TGI (SW-620 colon): > 100 µM
TGI (T-47D breast): > 100 µM
TGI (TK-10 renal): > 100 µM
TGI (U251 CNS): > 100 µM
TGI (UACC-257 melanoma): > 100 µM
TGI (UACC-62 melanoma): > 100 µM
TGI (UO-31 renal): > 100 µM

CCOC(=O)C1C(=O)CC(O)(c2ccccc2)C(C(=O)OCC)C1c1ccc(N(C)C)cc1 (stereo not drawn)
TGI (786-0 renal): > 100 µM
TGI (A498 renal): > 100 µM
TGI (A549 NSCLC): > 100 µM
TGI (ACHN renal): > 100 µM
TGI (BT-549 breast): > 100 µM
TGI (CAKI-1 renal): > 100 µM
TGI (CCRF-CEM leukemia): > 65.1 µM
TGI (COLO 205 colon): 53.5 µM
TGI (DU-145 prostate): > 100 µM
TGI (EKVX NSCLC): > 100 µM
TGI (HCC-2998 colon): > 100 µM
TGI (HCT-116 colon): > 100 µM
TGI (HCT-15 colon): > 100 µM
TGI (HL-60(TB) leukemia): 40 µM
TGI (HOP-62 NSCLC): > 88.8 µM
TGI (HOP-92 NSCLC): > 81.7 µM
TGI (HS 578T breast): 23.1 µM
TGI (HT29 colon): > 58.5 µM
TGI (IGROV1 ovarian): > 100 µM
TGI (K-562 leukemia): > 100 µM
TGI (KM12 colon): > 100 µM
TGI (LOX IMVI melanoma): > 100 µM
TGI (M14 melanoma): > 100 µM
TGI (MALME-3M melanoma): > 85.6 µM
TGI (MCF7 breast): > 100 µM
TGI (MDA-MB-231 breast): > 77.1 µM
TGI (MDA-MB-435): 25.9 µM
TGI (MDA-N): 33.7 µM
TGI (MOLT-4 leukemia): > 84.1 µM
TGI (NCI-H226 lung): > 100 µM
TGI (NCI-H23 lung): > 93.9 µM
TGI (NCI-H460 lung): > 83.8 µM
TGI (NCI-H522 lung): 30.7 µM
TGI (NCI/ADR-RES ovarian): > 78.2 µM
TGI (OVCAR-3 ovarian): > 75.1 µM
TGI (OVCAR-4 ovarian): > 100 µM
TGI (OVCAR-5 ovarian): > 100 µM
TGI (OVCAR-8 ovarian): > 65.9 µM
TGI (PC-3 prostate): > 100 µM
TGI (RPMI-8226 leukemia): 37.4 µM
TGI (RXF 393 renal): 44.4 µM
TGI (SF-268 CNS): > 93.5 µM
TGI (SF-295 CNS): 29.8 µM
TGI (SF-539 CNS): 37 µM
TGI (SK-MEL-2 melanoma): > 94 µM
TGI (SK-MEL-28 melanoma): > 100 µM
TGI (SK-MEL-5 melanoma): 72.3 µM
TGI (SK-OV-3 ovarian): 52 µM
TGI (SN12C renal): > 100 µM
TGI (SNB-19 CNS): > 79.9 µM
TGI (SNB-75 CNS): 64.9 µM
TGI (SR leukemia): 49.1 µM
TGI (SW-620 colon): > 100 µM
TGI (T-47D breast): > 92.5 µM
TGI (TK-10 renal): > 100 µM
TGI (U251 CNS): > 81.2 µM
TGI (UACC-257 melanoma): > 100 µM
TGI (UACC-62 melanoma): > 100 µM
TGI (UO-31 renal): > 100 µM
